Data on seven compounds can be found in ChEMBL document CHEMBL1201862, “PubChem BioAssay data set” (2004).

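Tested at 5 concentrations; 48 h exposure; 96-well plates; endpoints linearly interpolated, else capped at highest concentration. Here, GI50 denotes the concentration required for 50% inhibition of growth.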 Activity calls are given as the source filed them. No stated cut-off is given here; in the data, active = GI50 up to about 1.1 µM and inactive = higher.

Among the test systems are HCC 2998; T47D; ACHN; M14; UACC-62; MDA-N; Hs-578T; NCI-H23; HCT-116; DU-145; SK-MEL-2; SF-295; SK-MEL-5; A549; HL-60; MCF7; EKVX; IGROV-1; SK-OV-3; HT-29.
What all share (test): growth of human tumour cells (NCI), 48 h

Take `Brc1c(C#CCC(c2ccccc2)(c2ccccc2)c2ccccc2)ccc(C#CCC(c2ccccc2)(c2ccccc2)c2ccccc2)c1Br`: the GI50 with HCC 2998, in the assay on T47D, with ACHN, with M14, in the assay with UACC-62 and with MDA-N was > 100 µM (inactive) throughout. Moreover, the GI50 with Hs-578T, with NCI-H23, in the assay with HCT-116, in the assay with DU-145, with SK-MEL-2 and in the assay on SF-295 was > 100 µM (inactive) throughout. Besides, the GI50 in the assay with SK-MEL-5, in the assay with A549, in the assay on HL-60, with MCF7, with EKVX and with IGROV-1 was > 100 µM (inactive) in each case. Also, the GI50 in the assay on SK-OV-3 and in the assay on HT-29 was > 100 µM (inactive) in each case.
Regarding `COC(=O)c1cc(C)ccc1CC(Cc1ccc(C)cc1)C(=O)OC` (stereo not given), the GI50 is 25.8 µM (inactive) in the assay on HCC 2998; 30.8 µM (inactive) with T47D; > 100 µM (inactive) in the assay with ACHN; 20.9 µM (inactive) in the assay on M14; > 100 µM (inactive) in the assay with UACC-62; 40.6 µM (inactive) with MDA-N. In addition, the GI50 with Hs-578T is 21.2 µM (inactive); in the assay with NCI-H23, 9.4 µM (inactive); in the assay with HCT-116, 10.5 µM (inactive); in the assay with DU-145, > 33 µM (inactive); with SK-MEL-2, 25.1 µM (inactive); with SF-295, 27.3 µM (inactive). Moreover, the GI50 in the assay with SK-MEL-5 is 3.48 µM (inactive); in the assay with A549 it was 12.9 µM (inactive); with HL-60, 4.37 µM (inactive); with MCF7 it was 26.3 µM (inactive); with EKVX it was 11.1 µM (inactive); in the assay on IGROV-1, 72.4 µM (inactive). For the same compound, the GI50 was 26.6 µM (inactive) in the assay with SK-OV-3 and 5.58 µM (inactive) in the assay with HT-29.
`COc1ccc(OC)c2c1C1CCC(=O)N1CN2C(C)=O` (stereo not given): the GI50 in the assay on HCC 2998, with T47D, with ACHN, with M14, with UACC-62 and in the assay with MDA-N was > 100 µM (inactive) throughout. The GI50 in the assay on Hs-578T, in the assay with NCI-H23, in the assay on HCT-116, in the assay with DU-145, in the assay on SK-MEL-2 and in the assay on SF-295 was > 100 µM (inactive) each time. The GI50 in the assay on SK-MEL-5, in the assay with A549, with HL-60, with MCF7, in the assay with EKVX and in the assay on IGROV-1 was > 100 µM (inactive) each time. Moreover, the GI50 in the assay on SK-OV-3 and with HT-29 was > 100 µM (inactive) throughout.
Take `CC1=NN(c2ccccc2Cl)C2(C1)C(Cl)C(=O)N2c1nc2ccccc2s1` (stereo not given): the GI50 in the assay on HCC 2998 is > 100 µM (inactive); in the assay with T47D, 44.3 µM (inactive); in the assay on ACHN, 94.8 µM (inactive); with M14 it was 52.4 µM (inactive); in the assay with UACC-62, 44.6 µM (inactive); in the assay on MDA-N, 62.7 µM (inactive). In addition, the GI50 with Hs-578T was > 100 µM (inactive); with NCI-H23, 48.4 µM (inactive); with HCT-116 it was 44.9 µM (inactive); in the assay with DU-145 it was 47.2 µM (inactive); with SK-MEL-2 it was 48.9 µM (inactive); with SF-295 it was 61.8 µM (inactive). Moreover, the GI50 is 32.3 µM (inactive) with SK-MEL-5; 55.7 µM (inactive) in the assay with A549; 25.5 µM (inactive) in the assay on HL-60; 44.8 µM (inactive) with MCF7; > 100 µM (inactive) with EKVX; 42.1 µM (inactive) in the assay with IGROV-1. Also, the GI50 in the assay on SK-OV-3 is 24.7 µM (inactive); in the assay on HT-29, 51.5 µM (inactive).
Take `CC(C)CCOC(=O)NC(Nc1ccc(F)cc1)(C(F)(F)F)C(F)(F)F`: the GI50 is 21.7 µM (inactive) in the assay with HCC 2998; 6.22 µM (inactive) in the assay with T47D; 1.66 µM (inactive) with ACHN; 6.62 µM (inactive) in the assay on M14; 0.279 µM (active) with UACC-62; 2.81 µM (inactive) with MDA-N. Moreover, the GI50 with Hs-578T is > 100 µM (inactive); in the assay on NCI-H23, 33.4 µM (inactive); in the assay with HCT-116 it was 65.9 µM (inactive); in the assay with DU-145, 7.36 µM (inactive); with SK-MEL-2, 53.1 µM (inactive); in the assay on SF-295, > 100 µM (inactive). The GI50 is 12.6 µM (inactive) in the assay with SK-MEL-5; 23.1 µM (inactive) with A549; 12.9 µM (inactive) with HL-60; 23.2 µM (inactive) with MCF7; 60.7 µM (inactive) in the assay with EKVX; 38.2 µM (inactive) with IGROV-1. Besides, the figures for the GI50 in the assay with SK-OV-3 and with HT-29 were 63 µM (inactive) and 39.8 µM (inactive), respectively.
Turning to `CNC1NC(=O)c2ccccc2N1Cc1ccc(F)cc1` (stereo not given), the GI50 in the assay with HCC 2998, in the assay with T47D, with ACHN, with M14, in the assay with UACC-62 and in the assay with MDA-N was > 100 µM (inactive) throughout. Moreover, the GI50 with Hs-578T, with NCI-H23, in the assay on HCT-116, with DU-145, in the assay with SK-MEL-2 and in the assay with SF-295 was > 100 µM (inactive) each time. Further, the GI50 in the assay on SK-MEL-5, in the assay on A549, with HL-60, in the assay with MCF7, in the assay on EKVX and in the assay with IGROV-1 was > 100 µM (inactive) throughout. For the same compound, the GI50 with SK-OV-3 and in the assay on HT-29 was > 100 µM (inactive) each time.
Take `Nc1ccccc1CCN1CCN(CCCc2ccccc2)CC1`: the GI50 in the assay with HCC 2998 is 19.4 µM (inactive); with T47D, 20.8 µM (inactive); in the assay with ACHN, > 100 µM (inactive); in the assay on M14, 17.3 µM (inactive); in the assay with UACC-62, 84.3 µM (inactive); in the assay on MDA-N, 53 µM (inactive). Besides, the GI50 was > 100 µM (inactive) with Hs-578T; > 100 µM (inactive) in the assay on NCI-H23; 34.7 µM (inactive) with HCT-116; > 100 µM (inactive) with DU-145; > 100 µM (inactive) in the assay on SK-MEL-2; 45.4 µM (inactive) with SF-295. Also, the GI50 is 17.9 µM (inactive) in the assay with SK-MEL-5; 70.8 µM (inactive) in the assay with A549; 17.8 µM (inactive) in the assay with HL-60; 46.8 µM (inactive) in the assay with MCF7; > 100 µM (inactive) with EKVX; 50.6 µM (inactive) in the assay with IGROV-1. Besides, the values for the GI50 in the assay with SK-OV-3 and in the assay with HT-29 were > 100 µM (inactive) and 21.4 µM (inactive), respectively.
